Literature values, collected in publication PMC5369982, “Near infrared fluorescent imaging of choline kinase alpha expression and inhibition in breast tumors” (Oncotarget, 2017).
Where two headings read alike, the source gives them in different places.

Set-up: method as in PMID 10397253
Settings: cited from earlier work

What does the source list for MN58b [reference compound]?
Tolerability (10 mg/kg): lethal; Tolerability (dosed daily for 5 days at 5 mg/kg): tolerable
